Source: patent US11717556B2, “Stemness-suppressing composition comprising OCT4 function-inhibiting peptide” (NATIONAL CANCER CENTER, priority 2018, dated 2023)
Where no end group is shown, it is not given here.

Columns and labels:
PP1 protein = test: Fluorescence polarization binding of FITC-bound peptides to purified PP1 protein
Description: Peptides in which FITC was bound to Helix-1, Helix-2, and Helix-3 in Example 4 were synthesized.
The peptides were uniformly aliquoted at a final concentration of 20 nM into a fluorescence polarization reaction buffer solution (10 mM HEPES pH7.5, 50 mM NaCl, 1 mM DTT, 1 mM EDTA, and 0.0025% Tween 20), a purified PP1 protein was added thereto, and then the resulting mixture was reacted for 30 minutes, and the results of measuring fluorescence polarization using TECAN Infinite F200 Pro are illustrated in FIG. 19.
The binding powers of Helix 3-1 (SEQ ID NO: 14), Helix 3-2 (SEQ ID NO: 15), Helix 3-3 (SEQ ID NO: 13), and Helix 3 were compared by narrowing the sequence involved in binding to PP1 in the Helix-3 sequence (SEQ ID NO: 11) consisting of 19 amino acids.

[1] = tested on: OCT4 phosphorylation in NCCIT cell line; test: Western blotting of OCT4 phosphorylation in NCCIT cell line transformed with peptide vectors; format: cell-based, human; settings: vector-expressed peptide, cultured 36 to 48 hours, western blotting quantified with ImageJ (FIG. 16)
Excerpt: In order to confirm the link between the phosphorylation of an octamer-binding transcription factor 4 (OCT4) protein and stemness, first, a cell line expressing OCT4 substituted with 236D as an OCT4 S236 phosphorylation mimetic mutant was constructed. For construction of cells, a lentivirus expressing short hairpin RNA ([…], SEQ ID NO: 1) and a puromycin resistance gene in a doxycycline-dependent manner was constructed, and primarily, NCCIT(ATCC® CRL-2073™) and NTERA-2 (ATCC® CRL-1973™), which are cancer stem cell lines, were transfected with the lentivirus. Then, a plasmid recombinant for expressing OCT4 wild type and blasticidine resistance genes, or OCT4 substituted with 236D which is a phosphorylation mimetic of OCT4 and blasticidine resistance genes in a pCAG-Flag-B/S vector was secondarily transfected into the transfected cell line using Lipofectamine 3000 (Thermo Fisher). […]
After an NCCIT cell line was transformed by inserting the vector constructed by the method in Example 5 into the NCCIT cell line using Lipofectamine 3000, and then cultured for 36 hours to 48 hours, western blotting was performed in the same manner as in Example 2.1. The quantification of western blotting was analyzed using ImageJ. […]

[2] = tested on: OCT4 S236 phosphorylation in NCCIT and NTERA-2 cell lines; test: Okadaic acid (PP1 inhibitor) treatment, western blotting and immunofluorescence staining of OCT4 S236 phosphorylation; format: cell-based, human; settings: NCCIT and NTERA-2 treated with okadaic acid; western blotting and immunofluorescence (FIGS. 10, 11)
[3] = tested on: OCT4 S236 phosphorylation in cell lines; test: Immunofluorescence staining of OCT4 phosphorylation after cell permeable peptide treatment; format: cell-based; settings: cell permeable peptide 10 uM in cell culture solution, 2 days or more; immunofluorescence staining (FIG. 21)

Compound: Helix 3-3: Amino acid sequence VVRVWFCNRRQK; consisting of 12 amino acids (Helix 3-3)
- binding power to PP1 compared with Helix-3 (PP1 protein; FITC-bound peptides, fluorescence polarization (FIG. 20)): the same binding power as that of Helix-3

Compound: Helix 3: Amino acid sequence KDVVRVWFCNRRQKGKRSS; OCT4 function-inhibiting peptide consisting of 19 amino acids (Helix 3)
- binding to PP1 (fluorescence polarization values) (PP1 protein; FITC-bound peptide 20 nM, purified PP1 protein added, 30 minutes (FIG. 19)): bound

Compound: Helix 1-3: Amino acid sequence NRVRGNLENLFLQCPKPTLQQISHIAQQLGLEKDVVRVWFCNRRQKGKRS; OCT4 function-inhibiting peptide, expressed from pCAG-F-puro vector (Helix 1-3)
- phosphorylation of OCT4 [1]: the highest

Compound: C=C1[C@@H](O)[C@@H]2O[C@]3(CC[C@H](/C=C/[C@@H](C)[C@@H]4CC(C)=C[C@@]5(O[C@H](C[C@@](C)(O)C(=O)O)CC[C@H]5O)O4)O3)CC[C@H]2O[C@@H]1[C@@H](O)C[C@H](C)[C@H]1O[C@@]2(CCCCO2)CC[C@H]1C [okadaic acid]
- phosphorylation of OCT4 [2]: the phosphorylation of OCT4 was increased

Compound: Helix 1: Amino acid sequence NRVRGNLENL; OCT4 function-inhibiting peptide (also: FITC label (site not given here))
- phosphorylation of OCT4 [1]: the highest

Compound: 11R-GGG-VVRVWFCNRRQK: Cell permeable peptide to which the sequence of Helix-3-3 was linked: RRRRRRRRRRRGGGVVRVWFCNRRQK (Cell penetrating peptide CPP H3-3)
- phosphorylation of OCT4 [3]: increase in phosphorylation of OCT4
